In patent publication US7807781B2, “Inhibitors of serine protease activity and their use in methods and compositions for treatment of viral infections” (The Regents of the University of Colorado, priority 1999, dated 2010):
Like-named read-outs stand apart in the source and are kept apart here.

Legend:
[1] = test system: HIV-1 strain A018A in MAGI-CCR-5 cells; format: cell-based; settings: for mean positive cell count: +HIV-1; for inhibition of MAGI-CCR-5 cell early infection events: compared to HIV-1 alone
[2] = test system: lymphocyte-tropic HIV-1 strain A018A in PBMC; format: cell-based
[3] = test system: HIV-1 production in U1 cells; test: U1 monocytic cell assay, NaCl (hyperosmolarity)-induced HIV-1 p24 antigen; format: cell-based
[4] = test system: HIV-1 production in U1 cells; test: U1 monocytic cell assay, IL-18-induced HIV-1 p24 antigen; format: cell-based; settings: for p24 production: 0.5 nM IL-18, 48 hr
Description: U1 monocytic cell assay. U1 cells are obtained from the AIDS Research and Reference Reagent Program, National Institute of Allergy and Infectious Diseases, NIH. U1 cells are maintained in T-175 polystyrene flasks (Falcon, Becton Dickinson, Franklin Lakes, N.J.) in medium and used when in log phase growth. Cells are counted in a hemacytometer, examined for viability by Trypan blue exclusion (>95% for all experiments) and resuspended in fresh medium at 2×10^6 per ml. Two-hundred fifty […] are added to wells of 24-well polystyrene tissue culture plates (Falcon), followed by the addition of medium or AAT to produce the final concentration to be tested in a volume of […]. After 1.0 hr of incubation (37° C., 5% CO2), 50 ml of medium (control) or stimulus diluted in medium are added to wells to produce the final concentration of stimulus to be tested. The final culture volumes are […] and contained 1×10^6 cells per ml. After 48 hr of incubation (37° C. and 5% CO2) 50 ml of 10% (vol/vol) Triton-X-100 (Fisher Scientific, Fair Lawn, N.J.) is added to each culture (final concentration of 1% vol/vol), and cultures are frozen and thawed once. This is followed by assay for HIV-1 p24 antigen by ELISA with a lower limit of detection of 31 pg/ml (NCI-Frederick Cancer Research and Development Center, Frederick, Md.). The disruption of cells due to the addition of Triton-X-100 and the freeze-thaw cycle produced cell lysates and enabled assessment of total (secreted and cell-associated) production of p24 antigen.
Data are presented as means±SEM. Group means are compared by ANOVA using Fisher's least significant difference. For data expressed as percent change, the values for p24 in control cultures (medium alone) are subtracted from those for each culture-containing stimulus. The p24 concentrations in cultures conducted in the presence of stimulus alone are set at 100%. Percent p24 in cultures containing stimulus and AAT are calculated by dividing the measured p24 by that present in cultures containing stimulus alone. The resultant fraction is expressed as a percent.
The U1 cell line is derived from human monocytic U937 cells into which 2 copies of HIV-1 provirus are incorporated into host genome. Exposing U1 cells to pro-inflammatory cytokines such as IL-18, IL-1, IL-6 and TNF, phorbol esters or hyperosmolarity results in the induction of HIV-1 as assessed by p24 antigen. Stimulation of U1 cells with 0.5 nM IL-18 induced large amounts of p24 antigen after 48 hr of incubation in 3 separate experiments. U1 cells cultured in medium alone (control) contained a mean of 41.3±11.5 pg/ml p24 antigen, which is increased 150-fold to 6,235±1,775 pg/ml p24 following stimulation with IL-18. […] At 1, 2 and 3 mg/ml AAT, the percent reductions observed compared to stimulation with IL-18 alone are 65±1.8, 93±3.0 and 98±1%, respectively.

[5] = test system: HIV-1 production in U1 cells; test: U1 monocytic cell assay, IL-6-induced HIV-1 p24 antigen; format: cell-based; settings: for p24 antigen: 100 ng/ml IL-6
[6] = test system: U1 cells; test: U1 cell proliferation and viability (hemacytometer, trypan blue exclusion); format: cell-based, human; settings: 5 mg/ml AAT, 48 hrs
Description: To evaluate the effect of AAT on U1 cell proliferation and viability, 3 experiments are performed in the presence or absence of 5 mg/ml AAT. U1 cells are added at 1×10^6 cells per ml and cultured for 48 hrs. Following incubation, cells are quantified using a hemacytometer. The mean±SEM cell concentrations in control and AAT-containing cultures are 2.5×10^6±0.5×10^6 and 2.4×10^6±0.3×10^6 respectively. […] For all cultures, cell viability by trypan blue exclusion is >95%. The lack of toxicity is illustrated in FIG. 13.

[7] = test system: HIV-1 production in U1 cells; test: U1 monocytic cell assay, LPS-induced HIV-1 p24 antigen; format: cell-based; settings: for p24 antigen: 500 ng/ml LPS, 48 hrs

With “AAT: Alpha-1-antitrypsin purified from the blood of healthy volunteers to single-band homogeneity” the “mean positive cell count” value ([1]; AAT 0.1 mg/ml) was 74±13, the “mean positive cell count” value ([1]; AAT 1.0 mg/ml) was 75±17 and the “mean positive cell count” value ([1]; AAT 3.0 mg/ml) was 45±12. The “mean positive cell count” value ([1]; AAT 4.0 mg/ml) was 28±9, the “mean positive cell count” value ([1]; AAT 5.0 mg/ml) was 21±12 and the “inhibition of MAGI-CCR-5 cell early infection events” value ([1]; AAT 2.0 mg/ml) was 23%. The “inhibition of MAGI-CCR-5 cell early infection events” value ([1]; AAT 3.0 mg/ml) was 41%, the “inhibition of MAGI-CCR-5 cell early infection events” value ([1]; AAT 4.0 mg/ml) was 66% and the “inhibition of MAGI-CCR-5 cell early infection events” value ([1]; AAT 5.0 mg/ml) was 76%. The “effect on p24 antigen production of AAT present during infection only” value ([2]; AAT removed, 4 days of culture in medium alone) was “did not affect”, the p24 produced ([2]; PBMC infected in absence of AAT, 4 days with AAT 0.1 mg/ml) was 8,687±1,304 pg/ml and the p24 produced ([2]; PBMC infected in absence of AAT, 4 days with AAT 0.5 mg/ml) was 7,392±1,299 pg/ml. The p24 produced ([2]; PBMC infected in absence of AAT, 4 days with AAT 1.0 mg/ml) was 6,613 pg/ml, the p24 produced ([2]; PBMC infected in absence of AAT, 4 days with AAT 2.0 mg/ml) was 6,258±1,772 pg/ml and the p24 produced ([2]; PBMC infected in absence of AAT, 4 days with AAT 3.0 mg/ml) was 5,275±316 pg/ml. The p24 produced ([2]; PBMC infected in absence of AAT, 4 days with AAT 4.0 mg/ml) was 4,725±101 pg/ml, the p24 produced ([2]; PBMC infected in absence of AAT, 4 days with AAT 5.0 mg/ml) was 3,508 pg/ml and the “reduction in p24 antigen compared to control cultures” value ([2]; PBMC infected in absence of AAT, AAT 4.0 mg/ml) was 22%. The “reduction in p24 antigen compared to control cultures” value ([2]; PBMC infected in absence of AAT, AAT 5.0 mg/ml) was 46%, the p24 produced ([2]; PBMC infected in presence of 3 mg/ml AAT, 4 days with AAT 0.1 mg/ml) was 6,620±2,026 pg/ml and the p24 produced ([2]; PBMC infected in presence of 3 mg/ml AAT, 4 days with AAT 0.5 mg/ml) was 6,047±1,322 pg/ml. The p24 produced ([2]; PBMC infected in presence of 3 mg/ml AAT, 4 days with AAT 1.0 mg/ml) was 6,014±2,055 pg/ml, the p24 produced ([2]; PBMC infected in presence of 3 mg/ml AAT, 4 days with AAT 2.0 mg/ml) was 2,516±345 pg/ml and the p24 produced ([2]; PBMC infected in presence of 3 mg/ml AAT, 4 days with AAT 3.0 mg/ml) was 3,360±371 pg/ml. For the same substance, the p24 produced ([2]; PBMC infected in presence of 3 mg/ml AAT, 4 days with AAT 4.0 mg/ml) was 2,743±316 pg/ml, the p24 produced ([2]; PBMC infected in presence of 3 mg/ml AAT, 4 days with AAT 5.0 mg/ml) was 2,713±645 pg/ml and the “reduction in p24 production compared to control cultures” value (from here on “reduction in p24 production”) ([2]; PBMC infected in presence of 3 mg/ml AAT, AAT 2.0 mg/ml) was 71%. For the same substance, the “reduction in p24 production” value ([2]; PBMC infected in presence of 3 mg/ml AAT, AAT 3.0 mg/ml) was 61%, the “reduction in p24 production” value ([2]; PBMC infected in presence of 3 mg/ml AAT, AAT 4.0 mg/ml) was 65% and the “reduction in p24 production” value ([2]; PBMC infected in presence of 3 mg/ml AAT, AAT 5.0 mg/ml) was 67%. For the same substance, the “Maximal p24 reduction in PBMC exposed to AAT for 4 days” value ([2]; cells infected in the absence of AAT) was 46%, the “Maximal p24 reduction in PBMC exposed to AAT for 4 days” value ([2]; cells infected in the presence of AAT) was 71% and the “NaCl-induced 26-fold increase in p24 concentration” value ([3]; 60 mM NaCl, 5 mg/ml AAT) was “completely inhibited”. For the same substance, the “mean p24 level” value ([3]; 60 mM NaCl, AAT 0.1 mg/ml) was 11,054±3,231 pg/ml, the “mean p24 level” value ([3]; 60 mM NaCl, AAT 0.5 mg/ml) was 7,363±485 pg/ml and the “mean p24 level” value ([3]; 60 mM NaCl, AAT 1.0 mg/ml) was 5,657±48 pg/ml. The “mean p24 level” value ([3]; 60 mM NaCl, AAT 3.0 mg/ml) was 1,919±594 pg/ml, the “mean p24 level” value ([3]; 60 mM NaCl, AAT 4.0 mg/ml) was 425 ± 32 pg/mL and the “mean p24 level” value ([3]; 60 mM NaCl, AAT 5.0 mg/ml) was 266 ± 26 pg/mL. The “percent inhibition of NaCl-induced p24” value ([3]; AAT 3.0 mg/ml) was 76%, the “percent inhibition of NaCl-induced p24” value ([3]; AAT 4.0 mg/ml) was 98.3% and the “percent inhibition of NaCl-induced p24” value ([3]; AAT 5.0 mg/ml) was 100%. The p24 production ([4]; AAT 0.1 mg/ml) was 6,879±207 pg/ml, the p24 production ([4]; AAT 0.5 mg/ml) was 3,687±968 pg/ml and the p24 production ([4]; AAT 1 mg/ml) was 2,029±625 pg/ml. The p24 production ([4]; AAT 2 mg/ml) was 452 ± 209 pg/mL, the p24 production ([4]; AAT 3 mg/ml) was 179 ± 79 pg/mL and the “percent reduction of p24 compared to IL-18 alone” value (“percent reduction of p24” below) ([4]; AAT 1 mg/ml) was 65±1.8%. The “percent reduction of p24” value ([4]; AAT 2 mg/ml) was 93±3.0%, the “percent reduction of p24” value ([4]; AAT 3 mg/ml) was 98±1% and the “range of inhibition of HIV-1 production in U1 cells” value ([4]; all stimuli tested (IL-18, IL-6, TNF, LPS, hyperosmolarity)) was 73-100%. For the same substance, the p24 antigen ([5]; AAT 0.1 mg/ml) was 6,228±2,129 pg/ml, the p24 antigen ([5]; AAT 0.5 mg/ml) was 3,992±1,987 pg/ml and the p24 antigen ([5]; AAT 1 mg/ml) was 3,850±1,943 pg/ml. The p24 antigen ([5]; AAT 2 mg/ml) was 2,597±1,253 pg/ml, the p24 antigen ([5]; AAT 3 mg/ml) was 2,155±1,085 pg/ml and the p24 antigen ([5]; AAT 4 mg/ml) was 1,838±881 pg/ml. The p24 antigen ([5]; AAT 5 mg/ml) was 1,213±668 pg/ml, the “mean percent reduction of IL-6-induced p24” value (“mean percent reduction” below) ([5]; AAT 3 mg/ml) was 80% and the “mean percent reduction” value ([5]; AAT 4 mg/ml) was 88%. For the same substance, the “mean percent reduction” value ([5]; AAT 5 mg/ml) was 100%, the “cell viability by trypan blue exclusion” value [6] was > 95% and the “mean±SEM cell concentration after culture” value ([6]; 1×10^6 cells per ml added initially) was 2.4×10^6±0.3×10^6 cells per ml. For the same substance, the p24 antigen ([7]; AAT 1 mg/ml) was 1,108±241 pg/ml, the p24 antigen ([7]; AAT 2 mg/ml) was 913 ± 287 pg/mL and the p24 antigen ([7]; AAT 5 mg/ml) was 626 ± 257 pg/mL. The “inhibition of LPS-induced p24 production” value ([7]; AAT 3 mg/ml) was 71%, the “inhibition of LPS-induced p24 production” value ([7]; AAT 4 mg/ml) was 90% and the “inhibition of LPS-induced p24 production” value ([7]; AAT 5 mg/ml) was 86%.
